From patent publication US20240368113A1, “AMIDE COMPOUND AND USE THEREOF” (Chengdu Fendi Pharmaceutical Co. Ltd., priority 2021, published 2024)

Test system: MV-4-11 cells
Test: Inhibition of tumor cell proliferation (CellTiter-Glo)
Format: cell-based
Settings: Homo sapiens, MV4-11, 72 h, read-out: IC50 of inhibitory activity of tumor cell proliferation
Protocol: MV-4-11 cells were diluted with medium (RPM1640+10% FBS+1% PS) and plated at 4000 cells/well in a white-walled clear-bottom 96-well plate. MV-4-11 cells were plated and incubated in a 5% CO2, 37° C. incubator for 2 hours. Cells were treated with the indicated concentration of compound or DMSO (control), and placed in a 5% CO2, 37° C. incubator for 72 h after dosing. After the end of the culture, equilibrate at room temperature for 30 min, add 100 μl of CellTiter-Glo® Reagent to each well, and shake the microplate shaker for 2 min. After 10 min of incubation at room temperature, the luminescence was measured by a microplate reader, and the cell-free wells were used as the background wells. CC-90009 (celegen patent phase I) was used as a control, and its structural formula was as follows: 0

Row | Structure (SMILES) | IC50
1 | COP(=O)(OC)Oc1ccc(C#CC(=O)NCc2ccc3c(c2)CN(C2CCC(=O)NC2=O)C3=O)cc1 (stereo not drawn) [Compound 80] | 10 to 100 nM
2 | O=C(C#Cc1ccc(OP(=O)(Oc2ccccc2)Oc2ccccc2)cc1)NCc1ccc2c(c1)CN(C1CCC(=O)NC1=O)C2=O (stereo not drawn) [Compound 81] | < 1 nM
3 | CC1(C)COP(=O)(Oc2ccc(C#CC(=O)NCc3ccc4c(c3)CN(C3CCC(=O)NC3=O)C4=O)cc2)OC1 (stereo not drawn) [Compound 82] | 10 to 100 nM
4 | CC1(C)COP(=O)(Oc2ccccc2C#CC(=O)NCc2ccc3c(c2)CN(C2CCC(=O)NC2=O)C3=O)OC1 (stereo not drawn) [Compound 97] | 1 to 10 nM

Same assay, conditions: Homo sapiens, MV4-11; MV-4-11 cells, 72 h, CellTiter-Glo; read-out: IC50 of inhibitory activity of tumor cell proliferation

Row | Structure (SMILES) | IC50
5 | CC(C)(C)C(=O)OCOC(=O)c1cccc(C#CC(=O)NCc2ccc3c(c2)CN(C2CCC(=O)NC2=O)C3=O)c1 (stereo not drawn) [Compound 78] | > 100 nM
6 | O=C(C#CC1CCCCN1C(=O)C(F)(F)F)NCc1ccc2c(c1)CN(C1CCC(=O)NC1=O)C2=O (stereo not drawn) [Compound 85] | 10 to 100 nM
7 | O=C(O)CCC(=O)Oc1ccc(C#CC(=O)NCc2ccc3c(c2)CN(C2CCC(=O)NC2=O)C3=O)cc1 (stereo not drawn) [Compound 86] | 10 to 100 nM
8 | CC(C)(C)OC(=O)CCC(=O)Oc1ccc(C#CC(=O)NCc2ccc3c(c2)CN(C2CCC(=O)NC2=O)C3=O)cc1 (stereo not drawn) [Compound 87] | 10 to 100 nM
9 | O=C(O)CCC(=O)Oc1ccccc1C#CC(=O)NCc1ccc2c(c1)CN(C1CCC(=O)NC1=O)C2=O (stereo not drawn) [Compound 88] | 1 to 10 nM
10 | CC(C)(C)OC(=O)CCC(=O)Oc1ccccc1C#CC(=O)NCc1ccc2c(c1)CN(C1CCC(=O)NC1=O)C2=O (stereo not drawn) [Compound 89] | 1 to 10 nM
11 | O=C(C#Cc1cc(C(=O)O)c(F)cc1F)NCc1ccc2c(c1)CN(C1CCC(=O)NC1=O)C2=O (stereo not drawn) [Compound 91] | 1 to 10 nM
12 | CCCC(=O)OCOC(=O)c1ccccc1C#CC(=O)NCc1ccc2c(c1)CN(C1CCC(=O)NC1=O)C2=O (stereo not drawn) [Compound 94] | > 100 nM
13 | CCCC(=O)OCOC(=O)c1cccc(C#CC(=O)NCc2ccc3c(c2)CN(C2CCC(=O)NC2=O)C3=O)c1 (stereo not drawn) [Compound 95] | > 100 nM
14 | CC(=O)OCOC(=O)c1ccccc1C#CC(=O)NCc1ccc2c(c1)CN(C1CCC(=O)NC1=O)C2=O (stereo not drawn) [Compound 96] | > 100 nM
15 | O=C(C#Cc1cc2ccccc2o1)NCc1ccc2c(c1)CN(C1CCC(=O)NC1=O)C2=O (stereo not drawn) [Compound 98] | 1 to 10 nM
16 | O=C(C#Cc1coc2ccccc12)NCc1ccc2c(c1)CN(C1CCC(=O)NC1=O)C2=O (stereo not drawn) [Compound 99] | < 1 nM
17 | O=C(C#Cc1ccc2occc2c1)NCc1ccc2c(c1)CN(C1CCC(=O)NC1=O)C2=O (stereo not drawn) [Compound 102] | < 1 nM
18 | O=C(C#Cc1nc2ccccc2s1)NCc1ccc2c(c1)CN(C1CCC(=O)NC1=O)C2=O (stereo not drawn) [Compound 106] | 10 to 100 nM
19 | O=C(C#Cc1ccc2[nH]ncc2c1)NCc1ccc2c(c1)CN(C1CCC(=O)NC1=O)C2=O (stereo not drawn) [Compound 107] | 10 to 100 nM
20 | O=C(C#Cc1cc2ccccc2[nH]1)NCc1ccc2c(c1)CN(C1CCC(=O)NC1=O)C2=O (stereo not drawn) [Compound 110] | 1 to 10 nM

Row | Structure (SMILES) | IC50
21 | O=C(C#CC1CCCC1)NCc1ccc2c(c1)CN(C1CCC(=O)NC1=O)C2=O (stereo not drawn) [Compound 111] | 1 to 10 nM
22 | O=C(C#CC(O)c1ccccc1)NCc1ccc2c(c1)CN(C1CCC(=O)NC1=O)C2=O (stereo not drawn) [Compound 115] | > 100 nM
23 | CC(=O)c1ccc(C#CC(=O)NCc2ccc3c(c2)CN(C2CCC(=O)NC2=O)C3=O)cc1 (stereo not drawn) [Compound 118] | 1 to 10 nM
24 | CC1=C(C(=O)NCc2ccc3c(c2)CN(C2CCC(=O)NC2=O)C3=O)C(=O)c2ccccc21 (stereo not drawn) [Compound 119] | > 100 nM
25 | O=C(C#Cc1ccc2ncsc2c1)NCc1ccc2c(c1)CN(C1CCC(=O)NC1=O)C2=O (stereo not drawn) [Compound 120] | 1 to 10 nM
26 | O=C(C#Cc1ccc2scnc2c1)NCc1ccc2c(c1)CN(C1CCC(=O)NC1=O)C2=O (stereo not drawn) [Compound 121] | < 1 nM
27 | O=C(C#Cc1ccc2ncoc2c1)NCc1ccc2c(c1)CN(C1CCC(=O)NC1=O)C2=O (stereo not drawn) [Compound 122] | 10 to 100 nM
28 | O=C(C#Cc1ccc2ocnc2c1)NCc1ccc2c(c1)CN(C1CCC(=O)NC1=O)C2=O (stereo not drawn) [Compound 123] | < 1 nM
29 | Nc1ccc(C#CC(=O)NCc2ccc3c(c2)CN(C2CCC(=O)NC2=O)C3=O)cc1 (stereo not drawn) [Compound 124] | 10 to 100 nM
30 | O=C(C#CCN1CCCC1)NCc1ccc2c(c1)CN(C1CCC(=O)NC1=O)C2=O (stereo not drawn) [Compound 125] | > 100 nM
31 | O=C(C#CN1CCCC1)NCc1ccc2c(c1)CN(C1CCC(=O)NC1=O)C2=O (stereo not drawn) [Compound 126] | > 100 nM
32 | O=C(C#Cc1ccc2ncncc2c1)NCc1ccc2c(c1)CN(C1CCC(=O)NC1=O)C2=O (stereo not drawn) [Compound 127] | > 100 nM
33 | O=C(C#Cc1ccc2nc[nH]c(=O)c2c1)NCc1ccc2c(c1)CN(C1CCC(=O)NC1=O)C2=O (stereo not drawn) [Compound 128] | 10 to 100 nM
34 | O=C(C#Cc1cc2cn[nH]c2cc1F)NCc1ccc2c(c1)CN(C1CCC(=O)NC1=O)C2=O (stereo not drawn) [Compound 129] | 10 to 100 nM
35 | Cn1cnc2cc(C#CC(=O)NCc3ccc4c(c3)CN(C3CCC(=O)NC3=O)C4=O)ccc21 (stereo not drawn) [Compound 131] | 1 to 10 nM
36 | Cn1cnc2ccc(C#CC(=O)NCc3ccc4c(c3)CN(C3CCC(=O)NC3=O)C4=O)cc21 (stereo not drawn) [Compound 132] | 10 to 100 nM

Next, values leading:

Row | IC50 | Structure (SMILES)
37 | 1 to 10 nM | O=C(C#Cc1cc(O)ccc1Cl)NCc1ccc2c(c1)CN(C1CCC(=O)NC1=O)C2=O (stereo not drawn) [Compound 79]
38 | 1 to 10 nM | Nc1cccc(C#CC(=O)NCc2ccc3c(c2)CN(C2CCC(=O)NC2=O)C3=O)c1 (stereo not drawn) [Compound 84]
39 | > 100 nM | O=C(C#Cc1ccc(Cl)cc1C(=O)O)NCc1ccc2c(c1)CN(C1CCC(=O)NC1=O)C2=O (stereo not drawn) [Compound 90]
40 | > 100 nM | Cc1c(C#CC(=O)NCc2ccc3c(c2)CN(C2CCC(=O)NC2=O)C3=O)cccc1C(=O)O (stereo not drawn) [Compound 92]
41 | > 100 nM | O=C(C#Cc1cc(Cl)c(O)c(Cl)c1)NCc1ccc2c(c1)CN(C1CCC(=O)NC1=O)C2=O (stereo not drawn) [Compound 100]
42 | 10 to 100 nM | O=C(C#Cc1ccc(O)c(Cl)c1)NCc1ccc2c(c1)CN(C1CCC(=O)NC1=O)C2=O (stereo not drawn) [Compound 101]
43 | 10 to 100 nM | O=C(C#Cc1ccc(C(=O)O)cc1Cl)NCc1ccc2c(c1)CN(C1CCC(=O)NC1=O)C2=O (stereo not drawn) [Compound 103]
44 | < 1 nM | O=C(C#Cc1ccc(Cl)c(C(=O)O)c1)NCc1ccc2c(c1)CN(C1CCC(=O)NC1=O)C2=O (stereo not drawn) [Compound 104]
45 | 1 to 10 nM | Cc1cc(O)cc(C)c1C#CC(=O)NCc1ccc2c(c1)CN(C1CCC(=O)NC1=O)C2=O (stereo not drawn) [Compound 105]
46 | 1 to 10 nM | O=C(C#Cc1ccc2[nH]ccc2c1)NCc1ccc2c(c1)CN(C1CCC(=O)NC1=O)C2=O (stereo not drawn) [Compound 108]
47 | 1 to 10 nM | O=C(C#Cc1ccc(O)cc1Cl)NCc1ccc2c(c1)CN(C1CCC(=O)NC1=O)C2=O (stereo not drawn) [Compound 109]
48 | 1 to 10 nM | Cc1cc(O)ccc1C#CC(=O)NCc1ccc2c(c1)CN(C1CCC(=O)NC1=O)C2=O (stereo not drawn) [Compound 112]
49 | < 1 nM | Cc1cccc(C#CC(=O)NCc2ccc3c(c2)CN(C2CCC(=O)NC2=O)C3=O)c1O (stereo not drawn) [Compound 113]
50 | 1 to 10 nM | Cc1c(O)cccc1C#CC(=O)NCc1ccc2c(c1)CN(C1CCC(=O)NC1=O)C2=O (stereo not drawn) [Compound 114]
51 | 1 to 10 nM | CC(=O)c1ccccc1C#CC(=O)NCc1ccc2c(c1)CN(C1CCC(=O)NC1=O)C2=O (stereo not drawn) [Compound 116]
52 | < 1 nM | CC(=O)c1cccc(C#CC(=O)NCc2ccc3c(c2)CN(C2CCC(=O)NC2=O)C3=O)c1 (stereo not drawn) [Compound 117]
53 | 1 to 10 nM | O=C(C#Cc1ccc2[nH]ncc2c1F)NCc1ccc2c(c1)CN(C1CCC(=O)NC1=O)C2=O (stereo not drawn) [Compound 130]
54 | 1 to 10 nM | Cn1cnc2c(C#CC(=O)NCc3ccc4c(c3)CN(C3CCC(=O)NC3=O)C4=O)cccc21 (stereo not drawn) [Compound 133]
